Test results as given in US8426220B2, “Utilization of shield effect for dopamine detection and reagent development” (National Tsing Hua University, priority 2009, dated 2013).

Assays:
[1] = molecular target: T1, hMAO B-GFP fusion protein (medium form of dopamine probe) in PC12 cells (Homo sapiens, UniProt P27338); assay: MAO substrates MPTP and L-DOPA added to cells expressing dopamine probe elicit GFP fluorescence; format: cell-based; settings: for GFP fluorescence after drug treatment: PC12 cells expressing medium form of dopamine probe; for green fluorescence (release from shield effect) after treatment: preliminary experiment, excitation of 488 nm laser, a part of the cells
T1 construct: expressed in transfected cells
Description: Additions of MAO Substrates 1-methyl-4-phenyl-1,2,3,6-tetrahydropyridine (MPTP) and L-DOPA in Cells Expressing Dopamine Probe Elicit GFP Fluorescence
MPTP is a widely used compound as an MAO substrate. It is also used for measuring the enzyme activity of the MAO protein. The L-DOPA is a stable dopamine precursor and has been extensively used for the treatment of Parkinson's disease. After entering the cell, it could be converted into dopamine by the dopa decarboxylase. Both of the drugs could bind to dopamine transporter and be transported into the PC12 cells.

E. coli strain BL21 = assay: GFP fluorescent signal of dopamine probes and controls in living E. coli BL21, confocal microscopy; format: cell-based; settings: living E. coli BL21 after IPTG induction, excited by 488 nm laser, no substrate
PC12 cell line = assay: GFP fluorescent signal of dopamine probes and controls in PC12 stable cell lines, confocal microscopy; format: cell-based, rat; settings: excited by 488 nm laser, no substrate
Description: The rat pheochromocytoma cells (PC12 cell) were transfected with sequences of GFP, ΔhMAO B, and the probe protein through vector containing internal ribosome entry site (IRES). After antibiotic selection for more than a month, cell lines consistently expressing dopamine probe proteins were successfully established. The cell lines were detected by GFP antibody in Western blotting and observed by confocal microscopy.

[2] = differentiated PC12 cell line (NGF)
[3] = undifferentiated PC12 cell line

With `N[C@@H](Cc1ccc(O)c(O)c1)C(=O)O` [L-DOPA] the “GFP fluorescence after drug treatment” value ([1]; 100 μM L-dopa) was “strong GFP fluorescence” and the “green fluorescence (release from shield effect) after treatment” value [1] was “green fluorescence in those cells was successfully emitted”.

`CN1CC=C(c2ccccc2)CC1` [MPTP, 1-methyl-4-phenyl-1,2,3,6-tetrahydropyridine] was tested, and the “GFP fluorescence after drug treatment” value ([1]; 1 mM MPTP) was “strong GFP fluorescence” and the “green fluorescence (release from shield effect) after treatment” value [1] was “green fluorescence in those cells was successfully emitted”.

With “GFP: full-length green fluorescent protein, SEQ ID NO: 2, control [reference compound]” the GFP fluorescent signal (E. coli strain BL21) was “Evident expression of green fluorescent signal”, the GFP fluorescent signal (E. coli strain BL21; listed as full length GFP) was “clear fluorescent signals” and the GFP fluorescent signal (PC12 cell line; [2]) was “clear fluorescent signals”. For the same molecule, the GFP fluorescent signal (PC12 cell line; [3]) was “clear fluorescent signals”.

B1: ΔhMAO B (protein)
chain: MSNKCDVVVVGGGISGMAAAKLLHDSGLNVVVLEARDRVGGRTYTLRNQKVKYVDLGGSYVGPTQNRILRLAKELGLETYKVNEVERLIHHVKGKSYPFRGPFPPVWNPITYLDHNNFWRTMDDMGREIPSDAPWKAPLAEEWDNMTMKELLDKLCWTESAKQLATLFVNLCVTAETHEVSALWFLWYVKQCGGTTRIISTTNGGQERKFVGGSGQVSERIMDLLGDRVKLERPVIYIDQTRENVLVETLNHEMYEAKYVISAIPPTLGMKIHFNPPLPMMRNQMITRVPLGSVIKCIVYYKEPFWRKKDYCGTMIIDGEEAPVAYTLDDTKPEGNYAAIMGFILAHKARKLARLTKEERLKKLCELYAKVLGSLEALEPVHYEEKNWCEEQYSGGCYTTYFPPGILTQYGRVLRQPVDRIYFAGTETATHWSGYMEGAVEAGERAAREILHAMGKIPEDEI
With B1 the GFP fluorescent signal (E. coli strain BL21) was “no fluorescent signal”, the GFP fluorescent signal (PC12 cell line; [2]) was “no signal” and the GFP fluorescent signal (PC12 cell line; [3]) was “no signal”.

B2: hMAO B: the complete human monoamine oxidase B, SEQ ID NO: 1, control (protein, listed as Homo sapiens)
chain: MSNKCDVVVVGGGISGMAAAKLLHDSGLNVVVLEARDRVGGRTYTLRNQKVKYVDLGGSYVGPTQNRILRLAKELGLETYKVNEVERLIHHVKGKSYPFRGPFPPVWNPITYLDHNNFWRTMDDMGREIPSDAPWKAPLAEEWDNMTMKELLDKLCWTESAKQLATLFVNLCVTAETHEVSALWFLWYVKQCGGTTRIISTTNGGQERKFVGGSGQVSERIMDLLGDRVKLERPVIYIDQTRENVLVETLNHEMYEAKYVISAIPPTLGMKIHFNPPLPMMRNQMITRVPLGSVIKCIVYYKEPFWRKKDYCGTMIIDGEEAPVAYTLDDTKPEGNYAAIMGFILAHKARKLARLTKEERLKKLCELYAKVLGSLEALEPVHYEEKNWCEEQYSGGCYTTYFPPGILTQYGRVLRQPVDRIYFAGTETATHWSGYMEGAVEAGERAAREILHAMGKIPEDEIWQSEPESVDVPAQPITTTFLERHLPSVPGLLRLIGLTTIFSATALGFLAHKRGLLVRV
modifications: mat_peptide (1)..(520)
With B2 the GFP fluorescent signal (E. coli strain BL21) was “no fluorescent signal”.
